Activity calls are given as the source filed them. The calls are words filed in the database; no cut-off is given here.
Biological target: Protein kinase C alpha type (Homo sapiens) (UniProt P17252)
Assay: Relative binding affinity for Protein kinase C alpha (Inactive)

Relative binding affinity: inactive
SMILES: CCCCCCCCCCCCCCCC(=O)OC[C@@H](CO)OC(=O)CCCCCCCCCCCCCCC

Source: ChEMBL document CHEMBL1129354, “Molecular modeling and site-directed mutagenesis studies of a phorbol ester-binding site in protein kinase C” (J Med Chem, 1996)
